# According to US11186602B2, “Glucopyranosyl derivative and use thereof” (SUNSHINE LAKE PHARMA CO., LTD., priority 2018, dated 2021):
# Biological target: T1, human SGLT1 (Homo sapiens, UniProt P13866)
# T1 construct: expressed in transfected cells; host or cells: CHO cells (Flp-in CHO)
# T1 sequence (P13866 1-664): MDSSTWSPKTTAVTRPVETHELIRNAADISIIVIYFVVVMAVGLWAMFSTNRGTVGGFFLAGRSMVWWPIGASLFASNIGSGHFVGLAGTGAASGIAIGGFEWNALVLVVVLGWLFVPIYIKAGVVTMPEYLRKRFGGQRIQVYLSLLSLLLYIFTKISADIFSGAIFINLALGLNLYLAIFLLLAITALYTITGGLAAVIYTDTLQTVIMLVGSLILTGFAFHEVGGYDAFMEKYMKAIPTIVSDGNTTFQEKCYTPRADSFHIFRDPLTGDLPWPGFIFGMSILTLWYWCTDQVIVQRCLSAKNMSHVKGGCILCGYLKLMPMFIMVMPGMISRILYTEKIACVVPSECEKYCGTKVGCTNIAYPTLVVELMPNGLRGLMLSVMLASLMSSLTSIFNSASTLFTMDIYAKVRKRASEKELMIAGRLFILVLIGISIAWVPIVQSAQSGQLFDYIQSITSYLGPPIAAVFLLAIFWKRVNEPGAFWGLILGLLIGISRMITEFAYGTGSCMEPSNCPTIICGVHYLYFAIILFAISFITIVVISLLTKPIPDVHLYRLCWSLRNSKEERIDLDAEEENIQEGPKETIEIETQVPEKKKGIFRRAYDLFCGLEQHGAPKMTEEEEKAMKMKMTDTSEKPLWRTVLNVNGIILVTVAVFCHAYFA
# Test: Determination of SGLT1 inhibitory activity ([14C]-AMG uptake in CHO cells expressing human SGLT1)
# Assay type: cell-based
# Settings: CHO cells expressing human SGLT1, [14C]-AMG uptake, 37° C. for 1 hour
# Procedure: Mock-transfected FIP-in CHO cells (3×10^4 cells) and CHO cells expressing human SGLT1 gene were seeded into 96-well plates respectively. The cells were incubated for 12 hours. Each well of the 96-well plates was washed with 150 μL of sodium-free buffer once. To each well was added 50 μL of sodium-containing buffer containing test compounds having different concentrations and 0.5 μm [^14C]-AMG And the mixture in the well was incubated at 37° C. for 1 hour. To each well was added 150 μL of precooled sodium-free buffer to terminate the reaction. The cell pellet was washed with sodium free buffer three times and the residual liquid in well was removed. To each well was added 20 μL of precooled 100 mM NaOH, and the 96-well plates were vibrated at 900 rpm for 5 minutes. Scintillation fluid (80 μL) was added to each well which was then vibrated at 600 rpm for 5 minutes. The amount of 14C-AMG was quantitatively detected using liquid scintillation.
row,IC50 [nM],SMILES
1,1.73,"Cc1ccc([C@]23OC[C@](C(C)(C)O)(O2)[C@@H](O)[C@H](O)[C@H]3O)cc1Cc1ccc(CCCC(=O)NC(C)(C)C(=O)NCCN2CCCC2)cc1 [Example 1, 2-Methyl-2-[4-[4-[[2-methyl-5-[(1S,2S,3S,4R,5S)-2,3,4-trihydroxy-1-(1-hydroxy-1-methyl-ethyl)-6,8-dioxabicyclo[3.2.1]octan-5-yl]phenyl]methyl]phenyl]butyrylamino]-N-(2-pyrrolidin-1-ylethyl)propionamide]"
2,1.16,"Cc1ccc([C@]23OC[C@](C(C)(C)O)(O2)[C@@H](O)[C@H](O)[C@H]3O)cc1Cc1ccc(CCCC(=O)NC2(C(=O)NCCN3CC[C@@H](F)C3)CCCCC2)cc1 [Example 7, N-[2-[(3R)-3-fluoropyrrolidin-1-yl]ethyl]-1-[4-[4-[[2-methyl-5-[(1S,2S,3S,4R,5S)-2,3,4-trihydroxy-1-(1-hydroxy-1-methyl-ethyl)-6,8-dioxabicyclo[3.2.1]octane-5-yl]phenyl]methyl]phenyl]butyrylamino]cyclohexyl formamide]"
3,5.75,"Cc1ccc([C@]23OC[C@](C(C)(C)O)(O2)[C@@H](O)[C@H](O)[C@H]3O)cc1Cc1ccc(CCCC(=O)N2CCC[C@H]2C(=O)NCCN(C)C)cc1 [Example 11, (2S)—N-(2-Dimethylaminoethyl)-1-[4-[4-[[2-methyl-5-[(1S,2S,3S,4R,5S)-2,3,4-trihydroxy-1-(1-hydroxy-1-methyl-ethyl)-6,8-dioxabicyclo[3.2.1]octan-5-yl]phenyl]methyl]phenyl]butyryl]pyrrolidine-2-carboxamide]"
